The values below come from paper PMC6329299 (The pharmacogenomics journal, 2015).

For data set [1], the target named is T1, CES1 in individual human liver s9 fractions (Homo sapiens, UniProt P23141).
T1 sequence (P23141 18-567): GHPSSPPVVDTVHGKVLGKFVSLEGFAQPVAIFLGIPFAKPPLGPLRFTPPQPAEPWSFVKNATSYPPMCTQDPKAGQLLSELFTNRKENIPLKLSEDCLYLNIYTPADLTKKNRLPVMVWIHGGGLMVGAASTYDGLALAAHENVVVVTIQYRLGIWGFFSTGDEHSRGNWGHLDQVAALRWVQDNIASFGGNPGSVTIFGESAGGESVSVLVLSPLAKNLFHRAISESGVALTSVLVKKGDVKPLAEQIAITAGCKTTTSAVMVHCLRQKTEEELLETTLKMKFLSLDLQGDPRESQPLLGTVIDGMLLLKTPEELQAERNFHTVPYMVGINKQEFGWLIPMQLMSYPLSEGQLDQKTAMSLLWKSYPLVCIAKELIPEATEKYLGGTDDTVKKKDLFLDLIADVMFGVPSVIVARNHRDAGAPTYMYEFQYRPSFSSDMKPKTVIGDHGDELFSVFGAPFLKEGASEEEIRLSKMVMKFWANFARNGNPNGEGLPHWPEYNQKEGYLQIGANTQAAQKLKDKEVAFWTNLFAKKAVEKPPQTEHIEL
Format: in vitro ADME. The settings on record: 143G/G livers; HLS9 0.5 mg/ml, enalapril 500 μM, 37 °C, 10 min.

For data set [2], the system named is CES1 in individual human liver s9 fractions. Format: in vitro ADME.
The next data set has as its target T2, CES1 variant S83L (Homo sapiens, UniProt P23141, S82L).
T2 sequence (P23141 18-568 isoform P23141-2 S83L limits assumed): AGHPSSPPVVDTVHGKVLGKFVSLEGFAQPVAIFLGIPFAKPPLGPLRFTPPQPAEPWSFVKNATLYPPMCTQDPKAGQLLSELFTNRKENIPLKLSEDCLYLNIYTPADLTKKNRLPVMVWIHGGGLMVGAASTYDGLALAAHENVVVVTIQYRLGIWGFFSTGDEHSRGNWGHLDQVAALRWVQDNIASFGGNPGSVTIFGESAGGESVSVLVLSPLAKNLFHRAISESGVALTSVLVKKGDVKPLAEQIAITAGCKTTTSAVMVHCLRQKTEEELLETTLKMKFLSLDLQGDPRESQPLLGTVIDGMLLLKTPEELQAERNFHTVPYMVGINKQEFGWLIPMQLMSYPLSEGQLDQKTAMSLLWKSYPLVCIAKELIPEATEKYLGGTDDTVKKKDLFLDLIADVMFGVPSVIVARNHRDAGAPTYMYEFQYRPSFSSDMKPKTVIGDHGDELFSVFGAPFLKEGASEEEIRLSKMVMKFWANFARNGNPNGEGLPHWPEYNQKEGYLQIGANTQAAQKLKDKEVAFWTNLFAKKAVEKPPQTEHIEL
The data set can be described thus: Enalapril hydrolysis by CES1 variant S83L transfected cell s9. Format: in vitro ADME. Conditions: enalapril 500 μM.

In the next data set the target is T3, CES1 variant A270S (Homo sapiens, UniProt P23141, A269S).
T3 sequence (P23141 18-568 isoform P23141-2 A270S limits assumed): T2 sequence (P23141 18-568 isoform P23141-2 S83L limits assumed) with L66S, A253S
The data set is described as follows: Enalapril hydrolysis by CES1 variant A270S transfected cell s9. Format: in vitro ADME. Conditions: enalapril 500 μM.

The target in a further data set is T4, CES1 variant G19V (Homo sapiens, UniProt P23141, G18V).
T4 sequence (P23141 18-568 isoform P23141-2 G19V limits assumed): T2 sequence (P23141 18-568 isoform P23141-2 S83L limits assumed) with G2V, L66S
The data set can be described thus: Enalapril hydrolysis by CES1 variant G19V transfected cell s9. Format: in vitro ADME. Conditions: enalapril 500 μM.

For data set [3] the following is noted: human, pH 7.4.
The nature of data set [4]: Hydrolysis by human kidney s9 fractions. The settings on record: substrate 100 μM, 3 concentrations of HKS9. Format: in vitro ADME.
A short description of data set [5]: Hydrolysis by human intestine s9 fractions. Format: in vitro ADME. Conditions: substrate 100 μM, 3 concentrations of HIS9.
Setting [6] is: human liver samples, enalapril 500 μM.

Where a chain is given by its changes, count along the chain named. Structures can show the parent of a compound that is named as a salt.

A word on the Km: it is the substrate concentration at which the rate is half of its maximum. In turn, `CCOC(=O)[C@H](CCc1ccccc1)N[C@@H](C)C(=O)N1CCC[C@H]1C(=O)O` [Enalapril, Enalapril maleate] came in with an enalapril activation rate in data set [1] of 55.4±37.3 pmole/min/mg protein. In data set [2] (CES1 expression comparable to pooled HLS9), the “CES1 activity in the null-CES1 liver samples (some G143E non-carriers)” value was “null CES1 activity”. The “CES1 activity on enalapril activation, 143G/E livers as fraction of 143G/G” value in [2] (human liver samples) is recorded as “approximately 1/3”. For the same compound, in [2] (setting [6]), the “CES1 activity on enalapril activation between CES1P1/CES1P1, CES1P1/CES1P1VAR and CES1P1VAR/CES1P1VAR genotypes” value was “no significant differences”; the “CES1 activity on enalapril hydrolysis among CES1/CES1, CES1/CES1VAR and CES1VAR/CES1VAR genotypes” value is “comparable”. The “CES1 activity on enalapril activation within the nine CES1/CES1P1 diplotypes” value in data set [2] (one way ANOVA, activity P=0.549) is listed as “no significant differences”. Further, the “Catalytic activity of S83L on enalapril activation vs WT CES1” value at CES1 variant S83L is given as “comparable to the WT CES1”. For the same compound, the “Catalytic activity of A270S on enalapril activation vs WT CES1” value at CES1 variant A270S was “comparable to the WT CES1”. Further, on CES1 variant G19V, the “Catalytic activity of G19V on enalapril activation vs WT CES1” value is on record as “comparable to the WT CES1”. For the same compound, the Vmax in the data set “Hydrolysis” (HLS9, PBS pH 7.4, 37 °C, unit for enalapril) turned out to be 67.5 ± 1.3 pmole/min/mg protein. Also, the Km in the data set “Hydrolysis” (human, pooled human liver s9 fractions (HLS9), pH 7.4) worked out at 60.1 ± 4.2 µM. In addition, the “Hydrolysis to active metabolite by human liver s9 fractions” value in “Hydrolysis” (prodrug 100 μM, 3 concentrations of HLS9) is recorded as “efficiently hydrolyzed”. Further, the “Clint (Vmax/Km)” value in data set [3] came to 1.1 μl/min/mg protein. The “Hydrolysis by human kidney s9 fractions” value in data set [4] is given as “No appreciable activation”. Besides, the “Hydrolysis by human intestine s9 fractions” value in [5] was “No appreciable activation”.
